SMILES strings stand for the structures. Entries after “also recorded” stand apart in the source; their conditions may differ.

For data set [1], the target named is T1, horseradish peroxidase type VI-A (Armoracia rusticana, UniProt P00433).
T1 construct: purchased Sigma 6782
T1 sequence (P00433 31-338 limits assumed): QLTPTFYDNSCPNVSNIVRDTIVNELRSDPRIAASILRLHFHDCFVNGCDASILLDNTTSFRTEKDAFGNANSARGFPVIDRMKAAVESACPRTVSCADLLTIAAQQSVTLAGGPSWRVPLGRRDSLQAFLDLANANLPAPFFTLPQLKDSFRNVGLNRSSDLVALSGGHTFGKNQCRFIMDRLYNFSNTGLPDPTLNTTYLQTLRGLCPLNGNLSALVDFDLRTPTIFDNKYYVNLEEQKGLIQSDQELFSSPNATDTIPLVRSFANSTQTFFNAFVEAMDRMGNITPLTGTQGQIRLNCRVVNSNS
In words: Peroxidase-catalysed oxidation of substrates, initial velocity (absorbency 492 nm) vs substrate concentration, Michaelis/Menten. The format is biochemical. The note with it: for Kkat: Vmax/[E], worked out from peroxidase of 50,000 g/mol; for Properties as substrate for peroxidase (in words): peroxidase/hydrogen peroxide system, compared with OPD or 3,4-DABA. From the text: Absorbancy at 492 nm was used as a measure of the course of the reaction. The initial velocity was taken to be the absorbancy at 492 nm two minutes after the addition of the peroxidase to a mixture of the substrate and hydrogen peroxide in a buffer with a pH of 5.0. The wavelength of 492 nm was chosen because it is employed in the standard assay procedures for OPD.
By varying the concentration of the substrate and at the same time measuring the initial velocity of the reaction it is posible to apply the Michaelis/Menten equation to the system.
Under ideal conditions the values determined experimentally will approach the value of the expression: [formula]
where [S] is the concentration of the substrate, Vmax is the maximum initial […] which is reached in the particular assay. Km is defined as the concentration of the substrate at Vmax/2. A small Km value will therefore be characteristic for an enzyme system where a low concentration of the substrates produces saturation of the enzyme.
The expression implies that the initial velocity will increase with increasing concentration of the substrate, but the curve for the velocity will flatten out and approach Vmax for very high concentrations of the substrate. In actual fact the parameter Kkat be calculated as Vmax/[E] where [E] is the molar concentration of the enzyme in the reaction. Kkat is the same as min^−1 and reflects the activity of the enzyme in a saturated solution upon the substrate.
The following solutions were prepared for use in the enzyme assay:
A 50 mM phosphate/citrate buffer with a pH of 5.0 was made by mixing a 50 mm Na2HPO4 solution and a 50 mm solution of citric acid. The pH was measured while mixing was in progress.
15 μl of a 30% solution of hydrogen peroxide (PERHYDROL, Merck) was thinned down with 25 ml of the assay buffer.
The stabilizing buffer for peroxidase, i.e. a buffer which stabilizes the enzyme, was prepared according to the method of Olsen and Little (1983). A 0.1M Na-acetate buffer, which was 0.5M in terms of CaCl2 was adjusted to pH 5.6.
10 mg of horseradish peroxidase type VI-A (Sigma no. 6782) were dissolved in 10 ml of the stabilizing buffer. This was stored at −15° C.
The standard peroxidase solution was diluted to 1:1000 with the 10 ml assay-buffer solution in 10 μl standard solution.
0.5 mmol of each substrate in 5 ml DMF.
The standard solutions were diluted by 1:10 with the assay buffer. Before being used the substrate solutions were diluted by 1:10. 0.5 ml of the standard solution was thinned down with 4.5 ml of the assay buffer.
The concentration of the peroxidase was held constant at 50 ng/ml during the whole investigation. By using the volume of substrate and the volumes of 10 vol-% DMF solution as given in table 4 it was possible to employ a constant reaction volume and a constant concentration of DMF. For all measurements there was used 1550 μl buffer and 50 μl bench solution of peroxidase. The total volume is then as follows: 300 μI DMF and substrate solution, 1550 μl buffer, […] bench solution of peroxidase and 50 μl hydrogen peroxide solution. That is 2000 μl in total.
The results of the measurements of initial velocities are stated in units of absorbency and not in molar units. In order to be able to measure the “true” velocity of reaction it is necessary to isolate the oxidation product for each substrate and determine the molar extinction coefficient. The value of Kkat is worked out from 1 mole of peroxidase of 50,000 g/mol.

The conditions of data set [2]: background statement; cited from earlier work.
Data set [3] deals with Salmonella tphimurium TA 98. The data set can be described thus: Ames test for mutagenicity, with and without S9-mix. The format is cell-based. The note with it: 100 μl of 50, 100 and 200 mM solutions in DMSO, with and without rat liver S9-mix. The protocol:
The Ames test (Maron and Ames (1983)) was used to determine the mutagenic properties of the compounds. Nutrient media were prepared in the manner described by Venitt and Parry (1984). To 3×2 ml melted agar at 45° C. were added 100 μl of 50, 100 and 200 mM of solutions of the compounds dissolved in DMSO. By means of a pipette 100 μl of a well-grown culture of Salmonella tphimurium TA 98 (BIO-TEST gl. skolevej 47, 6731 Tiaereborg) were added to the same test-tube. The bacteria contain a frameshift mutation on the histinol-dehydrogenase gene and require histidin in order to grow. Mutagenic aromatic amines can cause the bacteria to mutate to His+ and they can then grow on the nutrient medium. The number of colonies after incubation therefore give a quantitative measure of the ability of the added compound to cause mutation. In all trials spontaneous mutations take place in the absence of a mutagen. These provide a measure of “background” mutation.
All trials were therefore carried out both with and without the addition of “S9-mix” from the livers of rats, this contains the P450 system. 0.5 ml of […] was added to each test-tube. The criteria for mutation are that increasing concentrations of the compound under investigation give a marked increase in the number of His+ mutants.
On the technique in general: The Ames test uses bacterial strains that need an amino acid and regain growth without it when mutated back.

As to `Nc1ccc(C(=O)O)cc1N` [3,4-DABA, 3,4-diamino benzoic acid], in data set [1], the Kkat was 2.0 * 10^8 1*mol^−1*min^−1 and the “Properties as substrate for peroxidase (in words)” value (“Properties as substrate” below) is recorded as “considerably poorer substrate for peroxidase than is OPD; also recorded: higher Km-value at the same Vmax when compared with OPD”.
Take `CCn1c(=NN=c2sc3cc(S(=O)(=O)O)ccc3n2CC)sc2cc(S(=O)(=O)O)ccc21` [ABTS, 2,2-azino-di (3-ethyl-benzo thiazolin-6-sulphonic acid)]: in data set [2], the “Mutagenicity (known)” value is listed as “mutagent”.
On to `Nc1ccccc1N` [OPD, o-phenylendiamine], for which, in data set [1], the Kkat is given as 1.6 * 10^8 1*mol^−1*min^−1. In data set [2], the “Carcinogenicity (known)” value was “carcinogenic” and the “Mutagenicity (known)” value was “mutagenic; also recorded: not a direct mutagen”. Also, in data set [3], the “Mutagenic properties (His+ mutants with increasing concentration)” value is “has mutagenic properties”.
For `Nc1ccc(C(=O)O)cc1` [PABA, p-amino benzoic acid], the “Toxicity (generally considered)” value in data set [2] is “non-toxic”.
With `Nc1ccccc1` [aniline], in data set [2], the “Toxicity (generally considered)” value is on record as “very toxic”.
`CCOC(=O)c1ccc(N)c(N)c1` [ethyl ester, 3,4-diamino benzoic acid ethyl ester] registered a melting point of 112 to 113 °C. In addition, in data set [1], the Kkat is 2.7 * 10^8 1*mol^−1*min^−1 and the “Properties as substrate” value is “significantly improved properties than 3,4-DABA; also recorded: very high Vmax”.
Take `CC(C)OC(=O)c1ccc(N)c(N)c1` [isopropyl ester, 3,4-diamino benzoic acid isopropyl ester]: the melting point fell in the range of 73 to 74 °C. In data set [1], the Kkat was 2.2 * 10^8 1*mol^−1*min^−1 and the “Properties as substrate” value is given as “significantly improved properties than 3,4-DABA”.
The matching figures for `COC(=O)c1ccc(N)c(N)c1` [methyl ester, 3,4-diaminobenzoic acid methyl ester]: 108 to 109 °C, 2.2 * 10^8 1*mol^−1*min^−1 and “significantly improved properties than 3,4-DABA”.

The term melting point denotes the temperature of the solid-liquid transition.

Source of the values: patent US20020004958A1, “Dyeing substrates” (Novozymes A/S, priority 1996, published 2002).
